Here are results for eight compounds from US9150583B2 (Boehringer Ingelheim International GmbH, priority 2011, dated 2015).

In data set [1] the target is Recombinant human CETP (Homo sapiens (Human), UniProt P11597). The data set can be described thus: CETP in vitro assay (fluorometric, Roar Biomedical). The format is biochemical. To be noted: 3 hours at 37° C., compound concentrations between 1 nM and 30 μM, read-out: IC50 values for inhibition of CETP. As to the method: CETP inhibitory activity of compounds of the present invention can be determined in a fluorometric assay purchased from Roar Biomedical, Inc. (New York, N.Y., USA). […] Recombinant human CETP was partially purified from medium conditioned by CETP expressing CHO cells. In a 384 well format 2.5 μl of compound solution in DMSO was combined with 2 μl of donor solution, 2 μl of acceptor solution and 0.8 μl of recombinant human CETP solution in a total volume of 100 μl with assay buffer and incubated for 3 hours at 37° C. The fluorescence intensity was measured at excitation wavelength of 485 nm and emission wavelength of 535 nm. IC50 values are calculated from dose effect curves from compound concentrations between 1 nM and 30 μM.

Data set [2] is described as follows: Assay for metabolic degradation. To be noted: pH 7.6; pooled human liver microsomes, 37° C., microsomal protein 1 mg/ml, test compound 1 μM, NADPH 1 mM; read-out: half-life (t½) values for human liver microsomal metabolic degradation. It is filed as in vitro ADME. As to the method: Assay for Metabolic Degradation
The metabolic degradation of the test compound is assayed at 37° C. with pooled human liver microsomes. The final incubation volume of 100 μl per time point contains TRIS buffer pH 7.6 at room temperature (0.1 M), magnesium chloride (5 mM), microsomal protein (1 mg/ml) and the test compound at a final concentration of 1 μM.
Following a short preincubation period at 37° C., the reactions were initiated by addition of beta-nicotinamide adenine dinucleotide phosphate, reduced form (NADPH, 1 mM) and terminated by transferring an aliquot into solvent after different time points. Additionally, the NADPH-independent degradation was monitored in incubations without NADPH, terminated at the last time point. The quenched incubations are pelleted by centrifugation (10000 g, 5 min). An aliquot of the supernatant is assayed by LC-MS/MS for the amount of parent compound. The half-life (t ½) is determined by the slope of the semilogarithmic plot of the concentration-time profile.
For orientation: Microsomes from liver hold many membrane-bound enzymes, among them those of drug oxidation.

Sequence of Recombinant human CETP (P11597 18-493): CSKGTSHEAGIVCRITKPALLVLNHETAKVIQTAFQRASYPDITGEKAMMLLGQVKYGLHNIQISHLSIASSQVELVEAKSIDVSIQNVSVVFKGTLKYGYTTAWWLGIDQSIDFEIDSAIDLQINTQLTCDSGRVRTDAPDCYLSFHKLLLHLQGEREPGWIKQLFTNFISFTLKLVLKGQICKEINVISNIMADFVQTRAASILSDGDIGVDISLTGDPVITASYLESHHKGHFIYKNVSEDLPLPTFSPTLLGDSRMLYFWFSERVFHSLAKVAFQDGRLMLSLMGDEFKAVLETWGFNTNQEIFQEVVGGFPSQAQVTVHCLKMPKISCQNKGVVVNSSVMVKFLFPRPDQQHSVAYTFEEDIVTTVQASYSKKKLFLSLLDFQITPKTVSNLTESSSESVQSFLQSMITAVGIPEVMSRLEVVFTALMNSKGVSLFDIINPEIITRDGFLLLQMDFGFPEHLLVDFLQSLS

By IC50 is commonly meant the concentration that gives 50% inhibition. In general, half-life refers to the time in which the quantity being followed falls by half. In the case of `CC(C)c1nc2c(c3c1[C@@H](c1ccc(C(F)(F)F)cc1)OC31CCOCC1)[C@@H](O)CC1(CC1)C2` [Example 1, (3R,9S)-4-isopropyl-7,7-(ethan-1,2-diyl)-3-(4-(trifluoromethyl)phenyl)-2′,3′,5′,6,6′,7,8,9-octahydro-3H-spiro[furo[3,4-c]quinoline-1,4′-pyran]-9-ol], the IC50 in data set [1] was 15 nM. Moreover, in data set [2], the half-life at 1 μM is above 2.17 h.

With `CC(C)c1nc2c(c3c1[C@@H](c1ccc(C(F)(F)F)c(C#N)c1)OC31CCOCC1)[C@@H](O)CC1(CC1)C2` [Example 2], the IC50 in data set [1] is 18 nM. Moreover, the half-life at 1 μM in data set [2] was above 2.17 h. With `COc1cc([C@H]2OC3(CCOCC3)c3c2c(C(C)C)nc2c3[C@@H](O)CC3(CC3)C2)ccc1C(F)(F)F` [Example 3, (3R,9S)-4-isopropyl-7,7-(ethan-1,2-diyl)-3-(3-methoxy-4-(trifluoromethyl)phenyl)-2′,3,5′,6,6,7,8,9-octahydro-3H-spiro[furo[3,4-c]quinoline-1,4′-pyran]-9-ol], the IC50 in data set [1] was found to be 11 nM. On to `CC(C)c1nc2c(c3c1[C@@H](c1ccc(C(F)(F)F)nc1)OC31CCOCC1)[C@@H](O)CC1(CC1)C2` [Example 4], for which, in data set [1], the half-maximal inhibitory concentration (IC50) amounted to 90 nM. With `CC(C)c1nc2c(c3c1[C@@H](c1ccc(C(F)(F)F)cc1)OC31CCOCC1)[C@@H](O)CC1(CC1)[C@H]2O` [Example 5, (3R,6R,9S)-4-isopropyl-7,7-(ethan-1,2-diyl)-3-(4-(trifluoromethyl)phenyl)-2′,3′,5′,6,6′,7,8,9-octahydro-3H-spiro[furo[3,4-c]quinoline-1,4′-pyran]-6,9-diol], the half-maximal inhibitory concentration (IC50) in data set [1] is 9 nM. Moreover, in data set [2], the half-life at 1 μM came to 0.95 h.

Regarding `CC(C)c1nc2c(c3c1[C@@H](c1ccc(C(F)(F)F)c(C#N)c1)OC31CCOCC1)[C@@H](O)CC1(CC1)[C@H]2O` [Example 6, 5-((3R,6R,9S)-6,9-dihydroxy-4-isopropyl-7,7-(ethan-1,2-diyl)-2′,3′,5′,6,6′,7,8,9-octahydro-3H-spiro[furo[3,4-c]quinoline-1,4′-pyran]-3-yl)-2-(trifluoromethyl)benzonitrile], the IC50 in data set [1] turned out to be 43 nM.

As to `COc1cc([C@H]2OC3(CCOCC3)c3c2c(C(C)C)nc2c3[C@@H](O)CC3(CC3)[C@H]2O)ccc1C(F)(F)F` [Example 7, (3R,6R,9S)-4-isopropyl-7,7-(ethan-1,2-diyl)-3-(3-methoxy-4-(trifluoromethyl)phenyl)-2′,3′,5′,6,6′,7,8,9-octahydro-3H-spiro[furo[3,4-c]quinoline-1,4′-pyran]-6,9-diol], in data set [1], the 50% inhibitory concentration (IC50) is 11 nM.

On to `CC(C)c1nc2c(c3c1[C@@H](c1ccc(C(F)(F)F)nc1)OC31CCOCC1)[C@@H](O)CC1(CC1)[C@H]2O` [Example 8, (3R,6R,9S)-4-isopropyl-7,7-(ethan-1,2-diyl)-3-(6-(trifluoromethyl)pyridin-3-yl)-2′,3′,5′,6,6′,7,8,9-octahydro-3H-spiro[furo[3,4-c]quinoline-1,4′-pyran]-6,9-diol], for which the half-life at 1 μM in data set [2] is above 2.17 h.
